Tested on: patients suffering from coronary artery disease complicated with type 2 diabetes
Assay: Administration of SGLT2 inhibitor (50 mg Ipragliflozin) for 3 months; changes in individual indicators before and after administration
Format: in vivo, human
Settings: for 1,5-AG after administration of SGLT2 inhibitor: P <0.001
Procedure: Thirty patients suffering from coronary artery disease complicated with type 2 diabetes (28 male patients and 2 female patients; average age: 70.5±8.1 years old) who did outpatient visit and could not sufficiently control their blood glucose level only by administration with an oral hypoglycemic agent were used as subjects. Patients whose casual urinary sugar was positive before administration of the agent were excluded from the subjects. The aforementioned patients were administered with the SGLT2 inhibitor (50 mg Ipragliflozin; 30 cases) alone or in combination with other oral hypoglycemic agents for 3 months. In the additional administration groups, the antidiabetic agents used in combination with the SGLT2 inhibitor were 10 cases of sulfonylurea drugs, 19 cases of DPP-4 inhibitors, 9 cases of thiazolidine drugs, and 4 cases of metformin. The average number of the combined agents was 2.4. During the observation period, the combined antidiabetic agents were not changed.
Before administration of the SGLT2 inhibitor and 3 months after the first administration, 1,5-AG, HbA1c, casual urinary sugar (U-Sugar), LDL cholesterol (LDL-C), hematocrit (Ht), NT-proBNP, and eGFR (estimated glomerular filtration rate) were measured, and changes in individual indicators before and after the administration were examined. Moreover, regarding cases in which the 1,5-AG value before administration of the SGLT2 inhibitor was less than 13 μg/mL (19 male patient cases), changes in individual indicators before and after the administration were examined.
1,5-AG was measured by an enzymatic method (the aforementioned Lana 1,5AG Auto Liquid, manufactured by Nippon Kayaku Co., Ltd.); HbA1c was measured by an HPLC method (manufactured by Tosoh Co., Ltd.); casual urinary sugar was measured by a test paper method (manufactured by Eiken Chemical Co., Ltd.); and LDL cholesterol was measured by an enzymatic method (manufactured by SEKISUI MEDICAL CO., LTD.) and NT-pro BNP was measured by an ELC-EIA method (manufactured by Roche Diagnostics K. K.).
In Table 5 and Table 6, the results are shown with mean±SD, and for statistical analyses, a paired t-test was applied, and p<0.05 was defined to be statistically significant.

OC[C@H]1O[C@@H](c2ccc(F)c(Cc3cc4ccccc4s3)c2)[C@H](O)[C@@H](O)[C@@H]1O [Ipragliflozin]
1,5-AG after administration of SGLT2 inhibitor (19 male patients with 1,5-AG less than 13 μg/mL before administration, 50 mg, 3 months, mean ± SD, before 8.6 ± 2.9): 1.7 ± 0.8 µg/mL | HbA1c after administration of SGLT2 inhibitor (19 male patients with 1,5-AG less than 13 μg/mL before administration, 3 months, before 7.2 ± 0.8, P = 0.13): 6.8 ± 0.6 | 1,5-AG after administration of SGLT2 inhibitor (30 patients, 50 mg, 3 months after first administration, mean ± SD, before administration 12.8 ± 6.7): 2.5 ± 2.0 | HbA1c after administration of SGLT2 inhibitor (30 patients, 50 mg, 3 months, mean ± SD, before 7.0 ± 0.8, P = 0.40): 7.2 ± 1.2

Source: patent publication US12264356B2, “Method for determining sensitivity to SGLT2 inhibitor and sensitivity marker for SGLT2 inhibitor” (NIHON UNIVERSITY, priority 2019, dated 2025)
